Measurements: article PMC8151276, “An Integrated Approach toward NanoBRET Tracers for Analysis of GPCR Ligand Engagement” (Molecules, 2021)

What was measured:
Type in all cases: binding
PTGER3 = target: T1, PTGER3 (Homo sapiens, UniProt P43115); assay: NanoBRET screen HiBiT-PTGER3 in HEK293
T1 construct: purchased Promega (in-house HiBiT-GPCR construct library, NanoBRET)
T1 sequence (P43115 1-390): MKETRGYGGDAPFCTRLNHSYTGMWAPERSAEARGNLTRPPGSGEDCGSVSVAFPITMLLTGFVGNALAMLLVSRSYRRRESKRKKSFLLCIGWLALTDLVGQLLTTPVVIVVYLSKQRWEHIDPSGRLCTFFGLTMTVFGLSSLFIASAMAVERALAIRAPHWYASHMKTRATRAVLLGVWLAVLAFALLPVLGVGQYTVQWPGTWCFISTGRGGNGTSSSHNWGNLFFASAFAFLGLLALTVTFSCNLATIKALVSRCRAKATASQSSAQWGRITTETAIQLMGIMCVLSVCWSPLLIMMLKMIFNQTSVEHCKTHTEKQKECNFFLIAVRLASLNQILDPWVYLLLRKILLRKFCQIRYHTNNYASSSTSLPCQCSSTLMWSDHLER
Experimental: (§1) Each tracer candidate was screened across the entire library of HiBiT-GPCR constructs using NanoBRET as the detection modality. As depicted in Figure 4A, the specificity of interactions was evaluated through decrease in BRET due to competitive displacement of a bound tracer by excess parental compound. Each tracer was analyzed for binding to each HiBiT-GPCR fusion in the absence and in the presence of competing parental compound. Briefly, HEK293 cells were transfected with HiBiT-GPCR constructs diluted into promoterless DNA to reduce expression and maximize translocation to the cell surface. Each tracer candidate was then screened at concentrations of 1 μM and 0.1 μM across cells expressing these fusions. Cells were treated for 1.5 h with tracer either alone or in the presence of 20 μM competing parental compound (i.e., control). BRET was measured upon addition of purified LgBiT and subsequent complementation with HiBiT genetically fused to a GPCR. The specificity of interactions was assessed through a decrease in BRET signal due to competitive displacement of the bound tracer. To further gauge the robustness of these interactions, the fold response over the control (i.e., BRETtracer/BRETcontrol) was calculated. We chose a 1.5-fold response, which translates to ≥7-fold signal over noise as the minimal threshold required to score an interaction as positive. […]. Below we highlight the screening results obtained for our exemplary fluorescent tracers based on Clozapine, Amitriptyline and AZD1283.
(§2) HiBiT-GPCR DNA constructs were diluted in 10 mM Tris pH 8 to a final concentration of 0.01 μg/μL, arrayed in 96-well plates and stored at −20 °C. For transfection, HEK293 cells were suspended in Opti-MEM (without phenol red) supplemented with 2% fetal bovine serum (Seradigm) and 100 units/mL penicillin–streptomycin (Gibco) at a final concentration of 220,000 cells/mL and dispensed into white 96-well plates at 90 μL/well. Subsequent transfections and screens were carried using an Agilent Bravo Automated Liquid Handling Platform. First, the 96-well HiBiT DNA arrays were diluted 25-fold in Opti-MEM (without serum or phenol red) to a final concentration of 0.0004 μg/μL and 20 μL of the diluted DNAs were transferred into new 96-well plates. Next, promoterless carrier DNA (1 μg/μL) was diluted 25-fold (0.04 μg/μL) and then dispensed into the diluted arrays at 20 μL/well. Following brief mixing, Viafect transfection reagent (Promega) diluted 16-fold into Opti-MEM was dispensed into the plates at 40 μL/well. After mixing by pipetting, plates were incubated for 10 min on the pipetting station deck. The DNA-transfection reagent complexes were then added to plates containing cells. To facilitate the screen, 10 μL of DNA-transfection reagent complexes were added in duplicates to the top 4 and bottom 4 rows, resulting in two identical 48-well arrays per plate. Plates with transfected cells were incubated for 18–20 h at 37 °C/5% CO2. A screen of each tracer across the entire library using two different concentrations requires duplicate plates of transfected cells. Depending on the number of tracers being screened, transfections can be scaled up using the same ratios. The next day, for each tracer, four 20× screening solutions in tracer dilution buffer (Promega) were prepared: two duplicates at final concentration of 20 μM and two duplicates at a final concentration of 2 μM. A competing unmodified compound was added to one of each duplicate at a final concentration of 400 μM. The four resulting solutions were diluted 4-fold in Opti-MEM without serum or phenol red to generate 5× solutions (5 µM and 0.5 µM tracer +/− 100 μM competing compound). To screen the library, a BioTek MultiFlo FX liquid dispenser was used to dispense 22.5 µL of tracer solution to the top 4 rows and 22.5 µL tracer + competing compound solution to the 4 bottom rows. Plates were briefly mixed on an orbital shaker and incubated for 1.5 h at room temperature. […]

P2RY12 = target: T2, P2RY12 (Homo sapiens, UniProt Q9H244); assay: NanoBRET screen HiBiT-P2RY12 in HEK293
T2 construct: purchased Promega (in-house HiBiT-GPCR construct library, NanoBRET)
T2 sequence (Q9H244 whole entry, one chain of several): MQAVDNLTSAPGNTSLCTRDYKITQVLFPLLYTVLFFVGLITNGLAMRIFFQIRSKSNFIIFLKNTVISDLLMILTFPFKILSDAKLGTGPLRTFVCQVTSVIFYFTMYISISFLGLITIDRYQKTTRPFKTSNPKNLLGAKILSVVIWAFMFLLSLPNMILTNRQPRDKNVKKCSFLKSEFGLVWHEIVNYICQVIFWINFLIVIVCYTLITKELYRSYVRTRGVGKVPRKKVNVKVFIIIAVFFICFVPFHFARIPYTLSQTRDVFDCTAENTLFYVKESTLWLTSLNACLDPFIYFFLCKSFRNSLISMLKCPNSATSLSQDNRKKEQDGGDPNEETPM
Experimental: as §1, §2

NPY2R = target: T3, NPY2R (Homo sapiens, UniProt P49146); assay: NanoBRET screen HiBiT-NPY2R in HEK293
T3 construct: purchased Promega (in-house HiBiT-GPCR construct library, NanoBRET)
T3 sequence (P49146 1-381): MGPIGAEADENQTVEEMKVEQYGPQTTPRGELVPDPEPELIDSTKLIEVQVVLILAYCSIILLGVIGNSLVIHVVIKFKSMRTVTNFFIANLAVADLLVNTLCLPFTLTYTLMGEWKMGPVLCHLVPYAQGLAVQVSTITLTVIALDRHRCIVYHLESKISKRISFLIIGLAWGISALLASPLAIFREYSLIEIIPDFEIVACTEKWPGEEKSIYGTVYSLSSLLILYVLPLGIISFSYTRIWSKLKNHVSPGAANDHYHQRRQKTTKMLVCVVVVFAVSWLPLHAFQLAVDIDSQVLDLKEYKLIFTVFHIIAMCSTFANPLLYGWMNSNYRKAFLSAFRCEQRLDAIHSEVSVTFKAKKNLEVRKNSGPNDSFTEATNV
Experimental: as §1, §2

MTNR1B = target: T4, MTNR1B (Homo sapiens, UniProt P49286); assay: NanoBRET screen HiBiT-MTNR1B in HEK293; conditions: MTNR1B
T4 construct: purchased Promega (in-house HiBiT-GPCR construct library, NanoBRET)
T4 sequence (P49286 1-362): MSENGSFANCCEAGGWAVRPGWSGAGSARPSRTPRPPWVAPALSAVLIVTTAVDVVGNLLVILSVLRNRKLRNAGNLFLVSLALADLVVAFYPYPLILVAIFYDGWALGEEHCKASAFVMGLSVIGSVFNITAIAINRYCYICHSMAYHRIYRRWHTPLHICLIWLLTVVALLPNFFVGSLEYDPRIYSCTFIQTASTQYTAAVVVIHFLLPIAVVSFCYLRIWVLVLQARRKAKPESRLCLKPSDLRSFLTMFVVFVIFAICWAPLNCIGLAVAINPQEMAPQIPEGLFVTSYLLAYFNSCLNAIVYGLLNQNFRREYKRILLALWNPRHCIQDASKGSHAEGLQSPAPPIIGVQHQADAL
Experimental: as §1, §2

[1] = tracer at 0.1μM, listed as amitriptyline-b-2-NB590

CCOC(=O)c1cc(C#N)c(N2CCC(C(=O)NS(=O)(=O)Cc3ccccc3/C=C/C(=O)NCCNC(=O)CCc3ccc4n3[B-](F)(F)[N+]3=C(c5ccc[nH]5)C=CC3=C4)CC2)nc1C [AZD1283-1-NB590]
NanoBRET Fold Response (PTGER3; PTGER3, 0.1μM): 1.08
NanoBRET Fold Response (PTGER3; PTGER3, 1μM): 1.10
NanoBRET Fold Response (P2RY12; P2RY12, 0.1μM): 3.11
NanoBRET Fold Response (P2RY12; P2RY12, 1μM): 2.18
NanoBRET Fold Response (NPY2R; NPY2R, 0.1μM): 1.04
NanoBRET Fold Response (NPY2R; NPY2R, 1μM): 1.07
NanoBRET Fold Response (MTNR1B; 0.1μM): 0.97
NanoBRET Fold Response (MTNR1B; 1μM): 0.53

N#CN=C(NCCCOc1cccc(CN2CCCCC2)c1)NCCNC(=O)CCOCCOCCOCCOCCNC(=O)CCc1ccc2n1[B-](F)(F)[N+]1=C(c3ccc[nH]3)C=CC1=C2 [Aminopotentidine-2-NB590]
NanoBRET Fold Response (PTGER3; PTGER3, tracer 0.1μM): 1.01
NanoBRET Fold Response (PTGER3; PTGER3, tracer 1μM): 1.01
NanoBRET Fold Response (P2RY12; P2RY12, tracer 0.1μM): 0.94
NanoBRET Fold Response (P2RY12; P2RY12, tracer 1μM): 0.99
NanoBRET Fold Response (NPY2R; NPY2R, tracer 0.1μM): 0.98
NanoBRET Fold Response (NPY2R; NPY2R, tracer 1μM): 1.00
NanoBRET Fold Response (MTNR1B; tracer 0.1μM): 0.99
NanoBRET Fold Response (MTNR1B; tracer 1μM): 0.99

CN(C)CCC=C1c2ccccc2CCc2ccc(C(=O)NCCNC(=O)CCOCCOCCOCCOCCNC(=O)CCc3ccc4n3[B-](F)(F)[N+]3=C(c5ccc[nH]5)C=CC3=C4)cc21 [Amitriptyline-a-2-NB590]
NanoBRET Fold Response (P2RY12; tracer at 0.1μM): 1.14
NanoBRET Fold Response (P2RY12; tracer at 1μM): 0.93
NanoBRET Fold Response (NPY2R; tracer at 0.1μM): 0.99
NanoBRET Fold Response (NPY2R; tracer at 1μM): 0.98

CN(C)CCC=C1c2ccccc2CCc2ccc(C(=O)NCCNC(=O)CCOCCOCCOCCOCCNC(=O)CCc3ccc4n3[B-](F)(F)[N+]3=C(c5ccc[nH]5)C=CC3=C4)cc21 [Amitriptyline-b-2-NB590]
NanoBRET Fold Response (PTGER3; tracer at 0.1μM): 0.96
NanoBRET Fold Response (PTGER3; tracer at 1μM): 1.01
NanoBRET Fold Response (P2RY12; [1]): 0.96
NanoBRET Fold Response (NPY2R; [1]): 1.09
NanoBRET Fold Response (NPY2R; tracer at 1μM, listed as amitriptyline-b-2-NB590): 0.88
NanoBRET Fold Response (MTNR1B; tracer 0.1μM): 1.02
NanoBRET Fold Response (MTNR1B; tracer 1μM): 1.04

CN(CCC=C1c2ccccc2CCc2ccccc21)C(=O)CCOCCOCCOCCOCCNC(=O)CCc1ccc2n1[B-](F)(F)[N+]1=C(c3ccc[nH]3)C=CC1=C2 [Amitriptyline-e-2-NB590]
NanoBRET Fold Response (P2RY12; tracer at 1μM): 1.05
